From patent US6274715A, “Tricyclic erythromycin derivatives” (priority 1997, dated 2001)
≈ marks a conversion by molar mass, not a printed value. Like-named read-outs stand apart in the source and are kept apart here.

What was measured:
Type in all cases: cell-based
[1] = tested on: STAPHYLOCOCCUS AUREUS CMX 553; test: In vitro antibacterial activity, MIC, BHI agar dilution
[2] = tested on: STAPHYLOCOCCUS AUREUS CMX 642A; test: as above; conditions: S. aureus CMX 642A
[3] = tested on: MYCOBACTERIUM SMEGMATIS ATCC 114; test: as above; conditions: M. smegmatis ATCC 114, unit assumed
[4] = tested on: STAPHYLOCOCCUS AUREUS 1775; test: as above; conditions: S. aureus 1775, unit assumed
CANDIDA ALBICANS CCH 442 = test: as above; conditions: C. albicans CCH 442, unit assumed
[5] = tested on: STAPHYLOCOCCUS AUREUS NCTC10649M; test: as above; conditions: S. aureus NCTC10649M
[6] = tested on: KLEBSIELLA PNEUMONIAE ATCC 8045; test: as above
[7] = tested on: STAPHYLOCOCCUS AUREUS A5177; test: as above; conditions: S. aureus A5177, unit assumed
ESCHERICHIA COLI H560 = test: as above; conditions: E. coli H560, unit assumed
[8] = tested on: ACINETOBACTER CALCOACETICUS CMX 669; test: as above; conditions: A. calcoaceticus CMX 669, unit assumed
ESCHERICHIA COLI JUHL = conditions: E. coli JUHL; BHI agar; unit assumed
[9] = tested on: PSEUDOMONAS AERUGINOSA BMH10; test: In vitro antibacterial activity, MIC, BHI agar dilution
[10] = tested on: PSEUDOMONAS AERUGINOSA DPHD-2862; test: as above; conditions: P. aeruginosa DPHD-2862, unit assumed
ESCHERICHIA COLI SS = test: as above; conditions: E. coli SS, unit assumed
[11] = tested on: ENTEROBACTER AEROGENES ATCC 13048; test: as above
[12] = tested on: PSEUDOMONAS AERUGINOSA 5007; test: as above
ESCHERICHIA COLI DC-2 = test: as above
[13] = tested on: STAPHYLOCOCCUS EPIDERMIDIS 3519; conditions: S. epidermidis 3519; BHI agar; unit assumed
[14] = tested on: PSEUDOMONAS AERUGINOSA K799/61; test: In vitro antibacterial activity, MIC, BHI agar dilution
[15] = tested on: PSEUDOMONAS AERUGINOSA K799/WT; test: as above; conditions: P. aeruginosa K799/WT
[16] = tested on: PROVIDENCIA STUARTII CMX 640; conditions: P. stuartii CMX 640; BHI agar; unit assumed
[17] = tested on: STAPHYLOCOCCUS AUREUS ATCC 6538P; test: In vitro antibacterial activity, MIC, BHI agar dilution; conditions: S. aureus ATCC 6538P, 35-37° C., 20 to 24 hours, unit assumed
[18] = tested on: STREPTOCOCCUS PYOGENES PIU 2548; test: as above
[19] = tested on: STAPHYLOCOCCUS AUREUS A-5278; test: as above; conditions: S. aureus A-5278, unit assumed
PSEUDOMONAS CEPACIA 296I = test: as above; conditions: P. cepacia 296I, unit assumed
EN[…] ATCC 8043 = test: as above; conditions: E. faecium ATCC 8043, unit assumed
In short: (§1)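 BHI agar dilution, 12 plates; inoculum 1:100 (1:10 slow-growing strains), Steers replicator; 35-37° C, 20-24 h. MIC = lowest conc. with no growth/slight haze/sparse colonies vs growth control, visual read. Erythromycin A reference plate.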

M[…] ATCC 4698 = test: as above
In short: as §1

M[…] ATCC 9341 = test: as above
In short: as §1

STR[…] 508 = test: as above
In short: as §1

[20] = tested on: PSEUDOMONAS AERUGINOSA DPHD-5263; test: as above; conditions: P. aeruginosa DPHD-5263, unit assumed
[21] = tested on: STREPTOCOCCUS PYOGENES EES61; test: as above; conditions: S. pyogenes EES61, unit assumed
ESCHERICHIA COLI KNK 437 = conditions: E. coli KNK 437, BHI agar, unit assumed
[22] = tested on: STREPTOCOCCUS BOVIS A-5169; test: In vitro antibacterial activity, MIC, BHI agar dilution; conditions: S. bovis A-5169, listed as Ex 111, unit assumed
[23] = tested on: STREPTOCOCCUS PYOGENES 930; test: as above; conditions: S. pyogenes 930, unit assumed
[24] = S. aureus CMX 553, unit assumed
[25] = K. pneumoniae ATCC 8045, unit assumed
[26] = P. aeruginosa BMH10, unit assumed
[27] = E. aerogenes ATCC 13048, unit assumed
[28] = P. aeruginosa 5007, unit assumed
[29] = P. aeruginosa K799/61, unit assumed
[30] = S. pyogenes PIU 2548, unit assumed
[31] = M. luteus ATCC 4698, unit assumed
[32] = M. luteus ATCC 9341, unit assumed

Compound	MIC [1, 24]	MIC ([2]; unit assumed)	MIC [3]	MIC [4]	MIC (CANDIDA ALBICANS CCH 442)	MIC ([5]; unit assumed)	MIC [6, 25]	MIC [7]	MIC (ESCHERICHIA COLI H560)	MIC [8]	MIC (ESCHERICHIA COLI JUHL)	MIC [10]	MIC (ESCHERICHIA COLI SS)	MIC [16]	MIC [17]	MIC [19]	MIC (PSEUDOMONAS CEPACIA 296I)	MIC (EN[…] ATCC 8043)	MIC [20]	MIC [21]	further results
CC[C@H]1OC(=O)[C@H](C)C(=O)[C@H](C)[C@@H](O[C@@H]2O[C@H](C)C[C@H](N(C)C)[C@H]2O)[C@](C)(OC)C[C@@H](C)C2=N[C@H](COCc3ccc(OC)cc3)CN3C(=O)O[C@@]1(C)[C@H]3[C@H]2C [Example 90]	0.39 µg/mL (≈ 0.495 µM)	0.39 µg/mL (≈ 0.495 µM)	0.78 µg/mL (≈ 0.99 µM)	> 100 µg/mL	> 100 µg/mL	0.78 µg/mL (≈ 0.99 µM)	> 100 µg/mL	0.39 µg/mL (≈ 0.495 µM)	50 µg/mL (≈ 63.5 µM)	100 µg/mL (≈ 127 µM)	> 100 µg/mL	> 100 µg/mL	0.78 µg/mL (≈ 0.99 µM)	> 100 µg/mL	0.39 µg/mL (≈ 0.495 µM)	> 100 µg/mL	> 100 µg/mL	0.02 µg/mL (≈ 0.0254 µM)	> 100 µg/mL	≤ 0.005 µg/mL	MIC [9, 26]: > 100 µg/mL; MIC [11, 27]: > 100 µg/mL; MIC [12, 28]: > 100 µg/mL; MIC (ESCHERICHIA COLI DC-2; E. coli DC-2, unit assumed): > 100 µg/mL; MIC [13]: 0.39 µg/mL (≈ 0.495 µM); MIC [14, 29]: 6.2 µg/mL (≈ 7.87 µM); MIC ([15]; unit assumed): > 100 µg/mL; MIC [18, 30]: 0.78 µg/mL (≈ 0.99 µM); MIC (M[…] ATCC 4698; [31]): 0.78 µg/mL (≈ 0.99 µM); MIC (M[…] ATCC 9341; [32]): 0.1 µg/mL (≈ 0.127 µM); MIC (STR[…] 508; S. agalactiae CMX 508, unit assumed): 0.02 µg/mL (≈ 0.0254 µM); MIC (ESCHERICHIA COLI KNK 437): > 100 µg/mL
CC[C@H]1OC(=O)[C@H](C)C(=O)[C@H](C)[C@@H](O[C@@H]2O[C@H](C)C[C@H](N(C)C)[C@H]2O)[C@](C)(OC)C[C@@H](C)C2=NC3CN(CCCc4ccccc4)CC3N3C(=O)O[C@@]1(C)[C@H]3[C@H]2C (stereo partly drawn) [Example 111]				> 100 µg/mL	0.39 µg/mL (≈ 0.489 µM)			0.2 µg/mL (≈ 0.251 µM)	50 µg/mL (≈ 62.7 µM)	> 100 µg/mL	100 µg/mL (≈ 125 µM)	> 100 µg/mL	0.39 µg/mL (≈ 0.489 µM)	> 100 µg/mL	0.2 µg/mL (≈ 0.251 µM)	> 100 µg/mL	25 µg/mL (≈ 31.4 µM)	0.1 µg/mL (≈ 0.125 µM)	> 100 µg/mL	0.02 µg/mL (≈ 0.0251 µM)	MIC ([1]; S. aureus CMX 553, listed as Ex 111, unit assumed): 0.2 µg/mL (≈ 0.251 µM); MIC ([2]; listed as Ex 111, unit assumed): 0.39 µg/mL (≈ 0.489 µM); MIC [22]: 0.01 µg/mL (≈ 0.0125 µM); MIC [23]: 50 µg/mL (≈ 62.7 µM); MIC ([5]; listed as Ex 111, unit assumed): 0.2 µg/mL (≈ 0.251 µM); MIC ([6]; K. pneumoniae ATCC 8045, listed as Ex 111, unit assumed): > 100 µg/mL; MIC ([9]; P. aeruginosa BMH10, listed as Ex 111, unit assumed): > 100 µg/mL; MIC ([11]; E. aerogenes ATCC 13048, listed as Ex 111, unit assumed): > 100 µg/mL; MIC ([12]; P. aeruginosa 5007, listed as Ex 111, unit assumed): 100 µg/mL (≈ 125 µM); MIC (ESCHERICHIA COLI DC-2; E. coli DC-2, listed as Ex 111, unit assumed): 100 µg/mL (≈ 125 µM); MIC ([14]; P. aeruginosa K799/61, listed as Ex 111, unit assumed): 50 µg/mL (≈ 62.7 µM); MIC ([15]; listed as Ex 111, unit assumed): 1.56 µg/mL (≈ 1.96 µM); MIC ([18]; S. pyogenes PIU 2548, listed as Ex 111, unit assumed): 0.39 µg/mL (≈ 0.489 µM); MIC (M[…] ATCC 4698; M. luteus ATCC 4698, listed as Ex 111, unit assumed): 0.39 µg/mL (≈ 0.489 µM); MIC (M[…] ATCC 9341; M. luteus ATCC 9341, listed as Ex 111, unit assumed): 0.05 µg/mL (≈ 0.0627 µM); MIC (STR[…] 508; S. agalactiae CMX 508, listed as Ex 111, unit assumed): 0.05 µg/mL (≈ 0.0627 µM); MIC (ESCHERICHIA COLI KNK 437; listed as Ex 111): > 100 µg/mL
CCC1OC(=O)C(C)C(=O)C(C)C(OC2OC(C)CC(N(C)C)C2O)C(C)(OC)CC(C)C2=NCC(CSc3ccccc3)(CN(C)Cc3ccccc3)N3C(=O)OC1(C)C3C2C (stereo not drawn) [Example 133]	1.56 µg/mL (≈ 1.75 µM)	1.56 µg/mL (≈ 1.75 µM)	0.78 µg/mL (≈ 0.873 µM)	25 µg/mL (≈ 28 µM)	50 µg/mL (≈ 56 µM)	1.56 µg/mL (≈ 1.75 µM)	> 100 µg/mL	0.78 µg/mL (≈ 0.873 µM)	> 100 µg/mL	> 100 µg/mL	> 100 µg/mL	> 100 µg/mL	12.5 µg/mL (≈ 14 µM)	> 100 µg/mL	0.78 µg/mL (≈ 0.873 µM)	25 µg/mL (≈ 28 µM)	> 100 µg/mL	0.1 µg/mL (≈ 0.112 µM)	> 100 µg/mL	0.02 µg/mL (≈ 0.0224 µM)	MIC [23]: 6.2 µg/mL (≈ 6.94 µM); MIC [9, 26]: > 100 µg/mL; MIC [11, 27]: > 100 µg/mL; MIC [12, 28]: > 100 µg/mL; MIC (ESCHERICHIA COLI DC-2; E. coli DC-2, unit assumed): > 100 µg/mL; MIC [13]: 1.56 µg/mL (≈ 1.75 µM); MIC [14, 29]: 12.5 µg/mL (≈ 14 µM); MIC ([15]; unit assumed): > 100 µg/mL; MIC [18, 30]: 1.56 µg/mL (≈ 1.75 µM); MIC (M[…] ATCC 4698; [31]): 1.56 µg/mL (≈ 1.75 µM); MIC (M[…] ATCC 9341; [32]): 0.2 µg/mL (≈ 0.224 µM); MIC (ESCHERICHIA COLI KNK 437): > 100 µg/mL
